Measured values as given in article PMC4335020, “Single Oral Dose Pharmacokinetics of Decursin and Decursinol Angelate in Healthy Adult Men and Women” (PLoS ONE, 2015).

Assays:
[1] = Urinary excretion after single oral dose of Cogni.Q; assay type: in vivo, human; details: pooled 0-24 h urine; for number of subjects with analyte detected in urine: of 20 subjects
Method: Plasma was prepared by centrifuging the heparinized blood at 1000 g for 15 minutes at room temperature. Urine samples (40mL) were collected within time spans of 0–4, 4–8, 8–12 and 12–24 hours (total volume of urine was recorded). All plasma and urine samples were put on dry ice immediately and then stored at -80°C freezer until analysis.
Urine samples from each subject collected from 0 to 24 hours post-dose were pooled proportional to the volume of urine in each sampling period. Urine sample (200μL) was spiked with 5 μL of prednisolone solution (10 ng/μL, IS), and extracted with 1500 μL of ethyl acetate. The ethyl acetate fraction was recovered and dried using a SpeedVac. The dried residue was reconstituted in 50 μL of methanol for UHPLC-MS/MS analysis and 5 μL of the sample was injected.
Urine samples from each subject were pooled proportional to the amount of urine in each sampling period (hours 0–4, 4–8, 8–12 and 12–24). DA was detected in its original form in the urine of 14 subjects whereas D was only detected in the urine of 3 subjects. The levels of detectable D and DA ranged from 0.06∼1.74 nmol/L. DOH was detected in the urine of all subjects with a mean concentration of 289 nmol/L. These extractable unmodified pyranocoumarin forms accounted for the 24-hour cumulative excretion of less than 1% of the ingested pyranocoumarins. Further work is needed to estimate the extent of additional metabolites (free and conjugated forms) in urine and plasma.

[2] = design: method as in PMID 24026903; details: in vitro; cited from earlier work
[3] = tested on: murine colon carcinoma CT-26 cells; design: method as in PMID 21170925; details: daily oral 10 mg/kg for 14 days, 30 minutes prior to CT-26 injection through tail vein; cited from earlier work
[4] = design: method as in PMID 23364885; details: rat n = 3, oral 33.5 mg/kg D and 21.5 mg/kg DA, cited from earlier work; for Cmax: read-out: C max, nmol/, Mean (SD)
[5] = design: method as in ref 23 = [23]; 23 Zhang J, Li L, Tang S, Zhang Y, Markiewski M, et al. (2013) Subchronic Toxicological Evaluation of Ethanol Extract of Medicinal Herb Angelica gigas Nakai and its Pyranocoumarin Tissue Distribution; details: rodents; cited from earlier work
[6] = Stability of D and DA in fresh human whole blood and plasma; assay type: in vitro ADME; details: 37°C for 1 h, no detectable generation of DOH and other metabolites (data not shown)
Method: To rule out possible artifacts of blood collection, processing and blood-borne esterases, we tested the stability of D and DA in freshly obtained human whole blood and plasma. There was no loss of D and DA in plasma and whole blood after incubation at 37°C for 1 h, with no detectable generation of DOH and other metabolites (data not shown).

[7] = design: method as in ref (9) of IRB protocol; details: ref (9) of IRB protocol; cited from earlier work
[8] = tested on: cultured prostate and breast cancer cells; design: method as in PMID 15705905, PMID 17363485, PMID 17986353; details: up to 100 μM; cited from earlier work
[9] = tested on: primary cultures of rat cortical cells; design: method as in PMID 17637179; details: as low as 0.1 μmol/L; cited from earlier work
[10] = tested on: human umbilical vein endothelial (HUVEC) cells; design: method as in PMID 19307054; details: 1 μmol/L; cited from earlier work

| SMILES | number of subjects with analyte detected in urine [1] | rate of metabolism by human vs mouse and rat liver S9 fraction [2] | formation of tumor nodules in the lungs and lung weight [3] | AUC0–48h, h nmol/L, Mean (SD) [4] | T max, h, median (range) [4] | Cmax [4] [nM] | tissue/plasma ratios [5] | loss after incubation in plasma and whole blood [6] | rate of metabolism by human vs mouse and rat liver microsomes [7] | urine mean concentration ([1]; all subjects) [nmol/L] | anti-proliferative effect [8] | protective effect on glutamate-injured cells [9] | VEGF-induced proliferation and capillary-tube formation [10] |
| --- | --- | --- | --- | --- | --- | --- | --- | --- | --- | --- | --- | --- | --- |
| CC(C)=CC(=O)O[C@H]1Cc2cc3ccc(=O)oc3cc2OC1(C)C [D, decursin] | 3 subjects | metabolized more slowly by human liver S9 fraction | reduced the formation of tumor nodules in the lungs and decreased lung weight | 36.0 (14.3) h nmol/L | 1 (0.5–2) h | 7.3 | substantially greater than that of DOH | no loss | metabolized much slower by human | – | – | – | – |
| C/C=C(/C)C(=O)O[C@H]1Cc2cc3ccc(=O)oc3cc2OC1(C)C [DA, decursinol angelate] | 14 subjects | metabolized more slowly by human liver S9 fraction | – | 64.3 (8.8) h nmol/L | 1 (0.5–2) h | 7.3 | substantially greater than that of DOH | no loss | metabolized much slower by human | – | – | – | – |
| CC1(C)Oc2cc3oc(=O)ccc3cc2C[C@@H]1O [DOH, decursinol] | all subjects | – | – | 81272 (6829) h nmol/L | 4 (3–8) h | 5640 | – | – | – | 289 | little anti-proliferative effect | strong protective effect | significantly inhibited |
